ChEMBL document CHEMBL1136440, “Design and synthesis of novel RXR-selective modulators with improved pharmacological profile” (Bioorg Med Chem Lett, 2003)

Columns and labels:
[1] = biological target: T1, Retinoic acid receptor RXR-gamma (Homo sapiens, UniProt P48443); experiment: Binding affinity against RXR gamma receptor using [3H]9-cis-RA as radioligand in CV-1 cells; type: cell-based, Cercopithecidae
T1 sequence (P48443 whole entry): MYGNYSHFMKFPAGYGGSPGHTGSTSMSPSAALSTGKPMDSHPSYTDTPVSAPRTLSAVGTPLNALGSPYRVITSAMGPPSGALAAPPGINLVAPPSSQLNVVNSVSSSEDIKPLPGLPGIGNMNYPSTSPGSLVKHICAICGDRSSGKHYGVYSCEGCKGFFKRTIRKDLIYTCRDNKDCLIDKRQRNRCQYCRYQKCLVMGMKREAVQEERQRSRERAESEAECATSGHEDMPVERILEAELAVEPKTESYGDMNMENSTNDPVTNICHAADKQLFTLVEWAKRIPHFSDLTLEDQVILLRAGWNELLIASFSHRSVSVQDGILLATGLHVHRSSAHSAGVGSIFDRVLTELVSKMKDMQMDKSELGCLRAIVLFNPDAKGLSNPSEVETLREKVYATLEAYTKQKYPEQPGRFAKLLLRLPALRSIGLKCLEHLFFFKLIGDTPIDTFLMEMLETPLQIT

[2] = biological target: T2, Peroxisome proliferator-activated receptor gamma (Homo sapiens, UniProt P37231)
T2 sequence (P37231 whole entry): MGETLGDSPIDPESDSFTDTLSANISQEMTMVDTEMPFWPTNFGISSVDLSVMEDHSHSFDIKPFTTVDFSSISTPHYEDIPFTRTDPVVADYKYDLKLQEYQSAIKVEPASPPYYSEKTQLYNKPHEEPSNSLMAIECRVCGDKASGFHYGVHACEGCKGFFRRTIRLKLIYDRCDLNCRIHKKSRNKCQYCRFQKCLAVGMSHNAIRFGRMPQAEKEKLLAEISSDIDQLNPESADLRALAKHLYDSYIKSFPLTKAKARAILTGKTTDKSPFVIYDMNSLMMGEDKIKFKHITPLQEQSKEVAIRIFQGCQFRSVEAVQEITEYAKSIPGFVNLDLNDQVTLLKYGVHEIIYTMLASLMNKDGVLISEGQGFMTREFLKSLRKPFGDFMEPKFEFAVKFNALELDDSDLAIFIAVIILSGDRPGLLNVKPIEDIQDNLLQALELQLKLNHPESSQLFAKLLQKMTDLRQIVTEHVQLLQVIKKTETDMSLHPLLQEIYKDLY
Description: In vitro agonistic activity against PPAR gamma along with 100 nM BRL-49653

[3] = biological target: T2, Peroxisome proliferator-activated receptor gamma; remark: listed apart in the source
Description: In vitro agonist efficacy against PPAR gamma along with 100 nM BRL-49653

[4] = biological target: T3, Retinoic acid receptor RXR-alpha (Homo sapiens, UniProt P19793); experiment: In vitro agonistic activity against RXR alpha in CV-1 cells; type: functional, cell-based, Cercopithecidae
T3 sequence (P19793 whole entry): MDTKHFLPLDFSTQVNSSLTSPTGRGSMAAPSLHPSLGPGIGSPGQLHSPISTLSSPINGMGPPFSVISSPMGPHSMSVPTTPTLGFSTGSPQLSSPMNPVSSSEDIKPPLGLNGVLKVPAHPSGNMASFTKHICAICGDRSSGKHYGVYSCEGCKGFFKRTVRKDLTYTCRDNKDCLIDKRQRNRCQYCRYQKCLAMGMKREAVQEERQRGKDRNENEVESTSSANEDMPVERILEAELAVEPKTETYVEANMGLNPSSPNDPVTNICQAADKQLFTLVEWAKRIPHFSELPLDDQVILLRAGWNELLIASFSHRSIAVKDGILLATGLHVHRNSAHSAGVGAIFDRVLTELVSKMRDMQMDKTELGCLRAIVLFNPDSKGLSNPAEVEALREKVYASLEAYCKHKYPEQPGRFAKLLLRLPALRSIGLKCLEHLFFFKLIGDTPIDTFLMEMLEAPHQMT

Row | SMILES | Ki [1] [µM] | EC50 [2] [µM] | EC50 [3] [µM] | EC50 [4] [µM]
1 | C/C(=C/C=C/C(C)=C/C(=O)O)c1cc(-c2ccccc2F)cc(C(C)C)c1OCC(F)F | 0.0109 | 0.0004 | 0.046 | 
2 | CCOc1c(\C(C)=C/C=C/C(C)=C/C(=O)O)cc(C(F)(F)C(F)(F)F)cc1C(C)C | 0.0077 | 0.0007 | 0.099 | 0.092
